Measurements published in US20140357713A1, “ANTIMICROBIAL COMPOUNDS AND METHODS OF USE” (NexMed Holdings, Inc., priority 2012, published 2014).
Counter-ions that a name gives are not always drawn. Like-named read-outs stand apart in the source and are kept apart here.

Legend:
[1] = pH (Table 1); type: physicochemical
[2] = tested on: Escherichia coli (ATCC 25922); test: Minimum inhibitory concentration (MIC) assay, Example 33; type: cell-based
Method: (§1) Thirty compounds were tested for antimicrobial activity using standard procedures and standard strains for both the minimum inhibitory concentration (MIC) assay and a time kill study. Both the MIC assay and the time kill study were performed according to Clinical and Laboratory Standards Institute (CLSI) guidelines. Three bacteria strains, Escherichia coli (ATCC 25922), Pseudomonas aeruginosa (ATCC 27853), Staphulococcus aureus (ATCC 29213), and two fungus strains, Candida albicans (ATCC 90029) and Aspergillus niger (CMCC 98003), were used in the experiments.
(§2) Preparation of cultures. Before the experiment, two days for the bacteria strains and five days for fungus strains, an aliquot was removed from the cultures frozen at −80° C. Medium was added to the surface of an appropriate agar plate and streaked with the aliquot. The plate was incubated for 20 to 24 hrs at 35±2° C. for bacteria or for 5 days at 26-30° C. in incubator for fungus. From the resulting growth on each plate, one isolated colony of similar morphology was selected and re-streaked onto a fresh agar plate using a sterile disposable loop. The plate was incubated 20 to 24 hrs at 35±2° C. or for 5 days at 26-30° C. in an incubator.
(§3) Preparation of Assay Plates with Medium and Drugs. On the day of the assay, CAMHB medium or RPMI 1640 medium was removed from 4′C storage and allowed to reach room temperature. Ninety microliters (μL) of room temperature CAMHB or RPMI 1640 (supplemented with the appropriate concentration of DMSO, if required) were added to rows B-G of each 96-well microtiter plate. Using a pipette, duplicate 180 μL aliquots of each drug stock solution were added to column 1 (e.g. A1 and B1 or C1 and D1 or E1 and F1 or G1 and H1). Using a multichannel pipette or the Provision 2000 liquid handler, serial 2-fold dilutions (90 μL) were performed in each row across the plate to row G. Eighty μL of compounds dilutions were transferred to a 96-deep well plate. Medium, 1,520 μL of CAMHB or RPMI 1640, was added to each well. The contents of the wells were mixed thoroughly. A 50 μL aliquot of each of the resulting mixtures was transferred to a 96-well assay plate.
(§4) For bacteria, a sterile inoculating loop was used to transfer growth from an agar plate culture into about 5 mL of test medium. Using a turbidity meter, this inoculum was adjusted so that its density (600 nm) was equivalent to a 0.5 McFarland barium sulfate standard (0.08-0.13). The resulting suspension was diluted 1:100 into medium to obtain two times test inoculums.
(§5) For Aspergillus niger, sporulating colonies were covered with RPMI 1640, and a suspension was prepared by gently probing the colonies with the tip of a transfer pipette. The suspension was transferred to a sterile tube and mixed with a vortex mixer for 15 seconds. The densities at 530 nm were adjusted to 0.09-0.13 for each sample. The resulting suspension was diluted 1:50 with the medium to obtain two times test inoculums. Fifty μL/well of this inoculum suspension was added to wells of drug-containing plates (1:2 dilution). Plates were incubated at 35° C. for the appropriate times. The MIC was read and recorded according to CLSI guidelines.
(§6) The MIC values for thirty compounds against Escherichia coli, Pseudomonas aeruginosa, Staphulococcus aureus, Candida albicans, and Aspergillus niger were recorded and are presented in Table 3 and Table 4.

[3] = tested on: Pseudomonas aeruginosa (ATCC 27853); test: as above; type: cell-based; conditions: for MIC: Table 19 summary
Method: as §1, §2, §3, §4, §5, §6

[4] = tested on: Staphulococcus aureus (ATCC 29213); test: as above; type: cell-based, Staphylococcus aureus
Method: as §1, §2, §3, §4, §5, §6

[5] = tested on: Candida albicans (ATCC 90029); test: as above; type: cell-based
Method: as §1, §2, §3
For Candida albicans, a sterile inoculating loop was used to transfer growth from an agar plate culture into a tube with RPMI1640 medium. This inoculum was adjusted so that its density at 530 nm was in the ranges from 0.08 to 0.13. The resulting suspension was diluted 1:50 and further diluted 1:20 with the medium to obtain two times test inoculums.
as §5, §6

[6] = tested on: Aspergillus niger (CMCC 98003); test: as above; type: cell-based
Method: as §1, §2, §3, §5, §6

[7] = tested on: Candida albicans (ATCC 90029); test: Time kill study, Example 33 (0 to 5 min); type: cell-based; conditions: 1×MIC
Method: as §1
(§7) The viable counts in Log10 CFU/mL at each time point were recorded.
(§8) Time kill studies. Strain suspensions were prepared as described above for the MIC test, and strain suspensions and compound solutions were mixed in the same volume. Samples were removed at specified times including 0 min, 30 sec, 1 min and 5 mins, were diluted in the test medium and streaked on agar. Colonies were counted after 24 to 48 hrs of incubation. […]

[8] = tested on: Escherichia coli (ATCC 25922); test: Time kill study, Example 33 (0 to 5 min); type: cell-based; conditions: 1×MIC, sulfate
Method: as §1, §7, §8

[9] = tested on: Pseudomonas aeruginosa (ATCC 27853); test: Time kill study, Example 33 (0 to 5 min); type: cell-based; conditions: 1×MIC
Method: as §1, §7, §8

[10] = tested on: Staphylococcus aureus (ATCC 29213); test: Time kill study, Example 33 (0 to 5 min); type: cell-based; conditions: 1×MIC
Method: as §1, §7, §8

CCCCCCCCCCCCOC(=O)C(C)N(C)C (centres unmarked) [Nex-03, Dodecyl 2-(dimethylamino)propanoate sulfate]
pH ([1]; sulfate): 1.60
MIC ([2]; Table 19 summary of Example 33 and Example 35, sulfate): 1.56 mg/mL
MIC E. coli ([2]; n = 1, sulfate): 1.56 mg/mL
MIC E. coli ([2]; n = 2, sulfate): 1.56 mg/mL
MIC ([3]; sulfate): 3.13 mg/mL
MIC P. aeruginosa ([3]; n = 1, sulfate): 3.13 mg/mL
MIC P. aeruginosa ([3]; n = 2, sulfate): 3.13 mg/mL
MIC ([4]; Table 19 summary, sulfate): 1.56 mg/mL
MIC S. aureus ([4]; n = 1, sulfate): 1.56 mg/mL
MIC S. aureus ([4]; n = 2, sulfate): 1.56 mg/mL
MIC Candida albicans ([5]; n = 1, sulfate): 12.5 mg/mL
MIC Candida albicans ([5]; n = 2, sulfate): 6.25 mg/mL
MIC ([6]; Aspergillus niger, CMCC98003, n = 1, read-out: MIC Aspergillus niger): > 12.5 mg/mL
MIC ([6]; Aspergillus niger, CMCC98003, n = 2, read-out: MIC Aspergillus niger): > 12.5 mg/mL
MIC ([6]; Table 19 summary, sulfate): >12.5 mg/mL
Viable counts, Candida albicans time kill study ([7]; 0.5 min, sulfate): 5.53 Log10 CFU/mL
Viable counts, Candida albicans time kill study ([7]; 1 min, sulfate): 5.54 Log10 CFU/mL
Viable counts, Candida albicans time kill study ([7]; 5 min, sulfate): 5.52 Log10 CFU/mL
Viable counts, Candida albicans time kill study ([7]; time 0, sulfate): 5.6 Log10 CFU/mL
Viable counts, Escherichia coli time kill study ([8]; 0.5 min): 4.90 Log10 CFU/mL
Viable counts, Escherichia coli time kill study ([8]; 1 min): 4.18 Log10 CFU/mL
Viable counts, Escherichia coli time kill study ([8]; 5 min): 3.82 Log10 CFU/mL
Viable counts, Escherichia coli time kill study ([8]; time 0): 4.92 Log10 CFU/mL
Viable counts, Pseudomonas aeruginosa time kill study ([9]; 0.5 min, sulfate): <4.0 Log10 CFU/mL
Viable counts, Pseudomonas aeruginosa time kill study ([9]; 1 min, sulfate): <3.70 Log10 CFU/mL
Viable counts, Pseudomonas aeruginosa time kill study ([9]; 5 min): <3.52 Log10 CFU/mL
Viable counts, Pseudomonas aeruginosa time kill study ([9]; time 0, sulfate): 5.6 Log10 CFU/mL
Viable counts, Staphylococcus aureus time kill study ([10]; 0.5 min, sulfate): 6.1 Log10 CFU/mL
Viable counts, Staphylococcus aureus time kill study ([10]; 1 min, sulfate): 6.12 Log10 CFU/mL
Viable counts, Staphylococcus aureus time kill study ([10]; 5 min, sulfate): 6.11 Log10 CFU/mL
Viable counts, Staphylococcus aureus time kill study ([10]; time 0, sulfate): 6.11 Log10 CFU/mL

CCCCCCCCCCCCOC(=O)C(C)N(C)C (centres unmarked) [Nex-15, Dodecyl 2-(dimethylamino)propanoate phosphate]
pH ([1]; phosphate): 2.01
MIC (mg/ml) ([2]; Table 19 summary of Example 33 and Example 35, phosphate): ≧12.5 mg/ml
MIC E. coli ([2]; n = 1, phosphate): >12.5 mg/mL
MIC E. coli ([2]; n = 2, phosphate): >12.5 mg/mL
MIC ([3]; phosphate): >12.5 mg/mL
MIC P. aeruginosa ([3]; n = 1, phosphate): >12.5 mg/mL
MIC P. aeruginosa ([3]; n = 2, phosphate): >12.5 mg/mL
MIC S. aureus ([4]; n = 1, phosphate): 0.39 mg/mL
MIC S. aureus ([4]; n = 2, phosphate): 0.2 mg/mL
MIC ([5]; Table 19 summary, phosphate): 0.05 mg/mL
MIC Candida albicans ([5]; n = 1, phosphate): 0.05 mg/mL
MIC Candida albicans ([5]; n = 2, phosphate): 0.05 mg/mL
MIC ([6]; Table 19 summary, phosphate): 12.5 mg/mL
MIC Aspergillus niger ([6]; n = 1, phosphate): 12.5 mg/mL
Viable counts, Candida albicans time kill study ([7]; 0.5 min, phosphate): 5.23 Log10 CFU/mL
Viable counts, Candida albicans time kill study ([7]; 1 min, phosphate): 5.25 Log10 CFU/mL
Viable counts, Candida albicans time kill study ([7]; 5 min, phosphate): 5.28 Log10 CFU/mL
Viable counts, Candida albicans time kill study ([7]; time 0, phosphate): 5.12 Log10 CFU/mL
Viable counts, Staphylococcus aureus time kill study ([10]; 0.5 min, phosphate): 6.16 Log10 CFU/mL
Viable counts, Staphylococcus aureus time kill study ([10]; 1 min, phosphate): 6.14 Log10 CFU/mL
Viable counts, Staphylococcus aureus time kill study ([10]; 5 min, phosphate): 6.14 Log10 CFU/mL
Viable counts, Staphylococcus aureus time kill study ([10]; time 0, phosphate): 6.23 Log10 CFU/mL
